In the supplement of paper PMC11061612:

Assays:
HCC38 (Breast Carcinoma) = assay: Bliss excess, mean over the matrix (fraction); higher = more synergy
Procedure, shortened: (§1)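 Cell lines grown in DMEM/F12 or RPMI with 10% FBS were plated in 1536-well plates and held 24 hours at 37°C, 5% CO2 before 72 hours of exposure to two-drug dose matrices, with DMSO typically at 0.2%. CellTiter-Glo 2.0 luminescence gave viability, which was converted to inhibition. Vehicle wells were set to 0 and blank wells to 1. Combination Emax is the second-highest inhibition in the matrix, and Bliss excess is the observed combination effect minus the expected EA + EB − EA·EB, where EA and EB are the single-agent effects.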

D-392MG (Glioblastoma) [1] = assay: as above
Procedure, shortened: as §1

HuO9 (Osteosarcoma) = assay: as above
Procedure, shortened: as §1

[2] = test system: U-118-MG (Low Grade Glioma); assay: as above
Procedure, shortened: as §1

[3] = test system: HOP-92 (Non-Small Cell Lung Carcinoma); assay: as above
Procedure, shortened: as §1

EW-22 (Ewing's Sarcoma) = assay: as above
Procedure, shortened: as §1

[4] = test system: P31-FUJ (Acute Myeloid Leukemia); assay: as above
Procedure, shortened: as §1

[5] = test system: HLE (Hepatocellular Carcinoma); assay: as above
Procedure, shortened: as §1

[6] = test system: SW48 (Colorectal Carcinoma); assay: as above
Procedure, shortened: as §1

[7] = test system: SK-UT-1 (Other Solid Carcinomas); assay: as above
Procedure, shortened: as §1

MCF7 (Breast Carcinoma) = assay: as above
Procedure, shortened: as §1

[8] = test system: D-283MED (Other Solid Carcinomas); assay: as above
Procedure, shortened: as §1

[9] = test system: DOK (Oral Cavity Carcinoma); assay: as above
Procedure, shortened: as §1

D-392MG (Glioblastoma) [10] = assay: combination Emax (second highest fraction inhibited in the dose matrix, 72 h); higher = more inhibition; extreme values may be limits of the assay
Procedure, shortened: as §1

[11] = test system: NCI-H1688 (Small Cell Lung Carcinoma); assay: as above
Procedure, shortened: as §1

[12] = test system: HOP-92 (Non-Small Cell Lung Carcinoma); assay: as above
Procedure, shortened: as §1

[13] = test system: P31-FUJ (Acute Myeloid Leukemia); assay: as above
Procedure, shortened: as §1

[14] = test system: SK-UT-1 (Other Solid Carcinomas); assay: as above
Procedure, shortened: as §1

[15] = test system: BICR78 (Oral Cavity Carcinoma); assay: as above
Procedure, shortened: as §1

[16] = test system: SW948 (Colorectal Carcinoma); assay: Bliss excess, mean over the matrix (fraction); higher = more synergy
Procedure, shortened: as §1
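For Bliss excess, mean over the matrix in this document: after 72 h of two-drug dosing.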

Structure (SMILES) | Bliss excess (HCC38 (Breast Carcinoma)) | Bliss excess (D-392MG (Glioblastoma) [1]) | Bliss excess (HuO9 (Osteosarcoma)) | Bliss excess [2] | Bliss excess [3] | Bliss excess (EW-22 (Ewing's Sarcoma)) | Bliss excess [4] | Bliss excess [5] | Bliss excess [6] | Bliss excess [7] | Bliss excess (MCF7 (Breast Carcinoma)) | Bliss excess [8] | Bliss excess [9] | combination Emax (D-392MG (Glioblastoma) [10]) | combination Emax [11] | combination Emax [12] | combination Emax [13] | combination Emax [14] | combination Emax [15] | Bliss excess [16]
CN(C)CCCOc1ccc(-c2ccc3ncc4c(c3c2)n(C2CCOCC2)c(=O)n4C)cn1 [AZD0156] + C=CCn1c(=O)c2cnc(Nc3ccc(N4CCN(C)CC4)cc3)nc2n1-c1cccc(C(C)(C)O)n1 [AZD1775] (first compound max 1 µM, partner max 1 µM) | -0.0963 | -0.0461 | -0.0017 | -0.0322 | -0.0522 | 0.006 | 0.0046 | -0.026 | -0.0172 | -0.0346 | -0.0338 | -0.0408 | -0.0143 | 0.18 | 0.646 | 0.631 | 0.912 | 0.635 | 0.311 | –
CN(C)CCCOc1ccc(-c2ccc3ncc4c(c3c2)n(C2CCOCC2)c(=O)n4C)cn1 [AZD0156] + CCN(CCO)CCCOc1ccc2c(Nc3cc(CC(=O)Nc4cccc(F)c4)[nH]n3)ncnc2c1 [AZD2811] (first compound max 1 µM, 7x7, partner max 1 µM) | -0.0451 | -0.0556 | -0.009 | 0.0017 | 0.0242 | 0.005 | -0.0314 | 0.0189 | -0.0164 | 0.0253 | -0.0114 | 0.02 | -0.0527 | 0.0413 | 0.143 | 0.383 | 0.882 | 0.264 | 0.182 | –
CN(C)CCCOc1ccc(-c2ccc3ncc4c(c3c2)n(C2CCOCC2)c(=O)n4C)cn1 [AZD0156] + C[C@@H]1COCCN1C2=NC(=NC(=C2)C3(CC3)[S@](=N)(=O)C)C4=C5C=CNC5=NC=C4 [AZD6738] (first compound max 1 µM, 7x7, partner max 10 µM) | -0.0689 | -0.0549 | 0.0236 | 0.0189 | -0.0145 | 0.0143 | -0.0462 | 0.0261 | -0.0043 | 0.0126 | 0.0578 | 0.0357 | -0.0395 | 0.374 | 0.382 | 0.665 | 0.912 | 0.806 | 0.696 | –
C=CCn1c(=O)c2cnc(Nc3ccc(N4CCN(C)CC4)cc3)nc2n1-c1cccc(C(C)(C)O)n1 [AZD1775] + C[C@@H]1COCCN1C2=NC(=NC(=C2)C3(CC3)[S@](=N)(=O)C)C4=C5C=CNC5=NC=C4 [AZD6738] (first compound max 1 µM, partner max 10 µM) | -0.0805 | -0.04 | 0.0672 | -0.0075 | -0.0231 | -0.0218 | -0.008 | -0.0148 | 0.0642 | 0.0498 | 0.0332 | 0.0327 | 0.0081 | 0.483 | 0.789 | 0.643 | 0.952 | 0.906 | 0.667 | –
C=CCn1c(=O)c2cnc(Nc3ccc(N4CCN(C)CC4)cc3)nc2n1-c1cccc(C(C)(C)O)n1 [AZD1775] + O=C(c1cc(Cc2n[nH]c(=O)c3ccccc23)ccc1F)N1CCN(C(=O)C2CC2)CC1 [Olaparib] (first compound max 1 µM, partner max 10 µM) | -0.068 | -0.0369 | 0.0102 | -0.0766 | -0.0181 | 0.0148 | -0.0809 | -0.0567 | -0.0398 | -0.0148 | 0.003 | 0.0079 | -0.0236 | 0.235 | 0.6 | 0.596 | 0.868 | 0.625 | 0.362 | –
CCN(CCO)CCCOc1ccc2c(Nc3cc(CC(=O)Nc4cccc(F)c4)[nH]n3)ncnc2c1 [AZD2811] + C=CCn1c(=O)c2cnc(Nc3ccc(N4CCN(C)CC4)cc3)nc2n1-c1cccc(C(C)(C)O)n1 [AZD1775] (first compound max 1 µM, partner max 1 µM) | -0.0672 | -0.0945 | 0.0204 | 0.0469 | -0.0161 | 0.0527 | -0.0615 | 0.09 | -0.013 | 0.108 | 0.0165 | 0.0452 | -0.0017 | 0.168 | 0.568 | 0.646 | 0.917 | 0.765 | 0.264 | –
CCN(CCO)CCCOc1ccc2c(Nc3cc(CC(=O)Nc4cccc(F)c4)[nH]n3)ncnc2c1 [AZD2811] + C[C@@H]1COCCN1C2=NC(=NC(=C2)C3(CC3)[S@](=N)(=O)C)C4=C5C=CNC5=NC=C4 [AZD6738] (first compound max 1 µM, 7x7, partner max 10 µM) | -0.0372 | -0.0537 | -0.0491 | -0.0337 | 0.0305 | -0.0503 | -0.0332 | 0.0179 | -0.0228 | 0.0317 | -0.0565 | -0.0541 | -0.0502 | 0.392 | 0.271 | 0.626 | 0.942 | 0.816 | 0.637 | –
CCN(CCO)CCCOc1ccc2c(Nc3cc(CC(=O)Nc4cccc(F)c4)[nH]n3)ncnc2c1 [AZD2811] + O=C(c1cc(Cc2n[nH]c(=O)c3ccccc23)ccc1F)N1CCN(C(=O)C2CC2)CC1 [Olaparib] (first compound max 1 µM, 7x7, partner max 10 µM) | -0.003 | -0.0695 | 0.0215 | 0.0186 | -0.0048 | -0.0612 | -0.0895 | 0.004 | 0.0145 | 0.0453 | -0.0023 | -0.0234 | -0.0086 | 0.174 | 0.196 | 0.363 | 0.83 | 0.289 | 0.285 | –
C[C@@H]1COCCN1c1cc(C2([S@](C)(=N)=O)CC2)nc(-c2ccnc3[nH]ccc23)n1 [AZD6738] + O=C(c1cc(Cc2n[nH]c(=O)c3ccccc23)ccc1F)N1CCN(C(=O)C2CC2)CC1 [Olaparib] (first compound max 10 µM, 7x7, partner max 10 µM) | 0.0122 | -0.0067 | -0.0166 | 0.0125 | 0.0158 | 0.02 | -0.0848 | -0.0562 | -0.0367 | 0.0408 | 0.0135 | -0.0148 | 0.0048 | 0.38 | 0.203 | 0.667 | 0.877 | 0.821 | 0.615 | –
CS(=O)(=O)CCNCc1ccc(-c2ccc3ncnc(Nc4ccc(OCc5cccc(F)c5)c(Cl)c4)c3c2)o1 [Lapatinib] + Cn1cnc2c(F)c(Nc3ccc(Br)cc3Cl)c(C(=O)NOCCO)cc21 [Selumetinib] (first compound max 10 µM, 7x7, partner max 10 µM) | -0.0168 | -0.0383 | – | – | – | -0.0366 | -0.0118 | 0.0068 | 0.146 | 0.0151 | – | 0.0163 | -0.113 | 0.396 | – | – | 0.521 | 0.501 | 0.547 | -0.0086
CS(=O)(=O)CCNCc1ccc(-c2ccc3ncnc(Nc4ccc(OCc5cccc(F)c5)c(Cl)c4)c3c2)o1 [Lapatinib] + NC1(c2ccc(-c3nc4ccn5c(=O)[nH]nc5c4cc3-c3ccccc3)cc2)CCC1 [MK-2206] (first compound max 10 µM, 7x7, partner max 10 µM) | 0.037 | -0.0411 | 0.0257 | – | 0.0328 | 0.0308 | -0.062 | -0.0136 | 0.0412 | 0.0057 | -0.0702 | 0.0164 | 0.0212 | 0.189 | 0.819 | 0.685 | 0.947 | 0.636 | 0.545 | 0.049
CCc1c2c(nc3ccc(O)cc13)-c1cc3c(c(=O)n1C2)COC(=O)[C@]3(O)CC [SN-38] + O=C(c1cc(Cc2n[nH]c(=O)c3ccccc23)ccc1F)N1CCN(C(=O)C2CC2)CC1 [Olaparib] (first compound max 0.3 µM, 7x7, partner max 10 µM) | 0.0331 | 0.0711 | 0.0687 | – | – | 0.0213 | 0.0648 | 0.0335 | 0.028 | 0.057 | 0.0115 | 0.0174 | 0.0284 | 0.435 | 0.534 | – | 0.987 | 0.973 | 0.786 | 0.0993
Cc1nc(-c2cn3c(n2)-c2ccc(-c4cnn(C(C)(C)C(N)=O)c4)cc2OCC3)n(C(C)C)n1 [Taselisib] + O=C(Nc1ccc2[nH]nc(-c3ccncc3)c2c1)[C@@H]1CCN(CC(=O)N2CCN(c3ccc(-c4ncccn4)cc3)CC2)C1 [SCH772984] (first compound max 10 µM, 7x7, partner max 5 µM) | 0.0325 | 0.0272 | – | – | – | 0.0152 | 0.0477 | 0.0366 | 0.203 | 0.104 | – | 0.061 | -0.0218 | 0.799 | – | – | 0.948 | 0.485 | 0.66 | 0.032
